{
  "source": "patent US20130064815A1",
  "about": "“INDUCING APOPTOSIS IN QUIESCENT CELLS” (THE TRUSTEES OF PRINCETON UNIVERSITY, priority 2011, published 2013)",
  "key": {"[1]": {"system": "skin papillomas and carcinomas", "details": "cited from earlier work; for skin papilloma development: mouse"}, "[2]": {"system": "neoplasms, lymphoblastic lymphoma", "details": "p53-deficient mouse; cited from earlier work"}, "[3]": {"system": "breast cancer cell lines", "details": "cited from earlier work"}, "[4]": {"system": "tumor cells", "details": "intraperitoneal injection of tumor cells; cited from earlier work"}, "[5]": {"system": "primary human fibroblasts", "assay": "caspase 3/7 activity apoptosis assay (ApoTox-Glo) in proliferating and quiescent fibroblasts", "assay_type": "cell-based", "details": "for effect on MG132-induced apoptosis: 2-ME with increasing MG132", "description": "Referring to FIG. 2A, primary human fibroblasts were tested either in a proliferating state or after being induced into quiescence. Quiescence may be induced by either contact inhibition or serum starvation. Cells were treated with DHEA for four days, with bafilomycin added on the fourth day. Apoptosis was assessed based on the activity of caspase 3/7 for a fluorogenic substrate.\nPPP inhibition and apoptosis analysis: Apoptosis was measured based on the levels of caspase 3/7 released into the media using the ApoTox-Glo Triplex Assay according to the manufacturer's instructions (Promega Corp., Madison, Wis.). Cells were plated in triplicate at 10,000 cells per well in white-walled, clear-bottom 96-well plates (Costar, Corning Life Sciences, Lowell, Mass.). For contact inhibition, cells were plated 7 days prior to the start of treatment, for serum starvation cells were plated 4 days prior to treatment and switched to 0.1% serum media for the remaining 3 days, while proliferating cells were plated the day prior to the start of treatment. […] Cells in serum starvation conditions were incubated in 0.1% serum during treatment as well. The apoptosis reagent was added at 100 μl per well and incubated for 1 h prior to reading. Luminescence was read from the top using a Synergy-2 plate reader (Biotek, Winooski, Vt.). Luminescence data were normalized to the vehicle only condition.\nApoptosis induction was assessed by monitoring caspase 3/7 activity using a luminescent caspase substrate. This assay is optimized for high-throughput screening in 96-well plates and allows multiple concentrations and combination of drugs to be tested in triplicate at different time points. […] Therefore, this assay was used to compare proliferating and serum-starved cells only."}, "[6]": {"system": "LC3-II", "assay": "LC3-II immunoblot (autophagy / autophagic flux)", "assay_type": "cell-based, human", "description": "(§1) The levels of autophagy components—Atg5/Atg12, Atg7, Atg3, and LC3-I and LC3-II—were monitored in proliferating and contact-inhibited fibroblasts using immunoblotting (FIG. 21A). As a positive control for autophagy induction, samples of cells in each cell cycle state were also incubated in Kreb's Ringer Bicarbonate solution (KRB), a protocol that induces autophagy through amino acid starvation and elimination of other nutrients except glucose. Levels of Atg5/Atg12, Atg7, and LC3-II were elevated in all of the amino acid starvation and contact-inhibition states as compared to the proliferating state (FIG. 21A). Atg3 was induced in all quiescent states compared with proliferating states, including amino acid starvation. In order to differentiate whether the high levels of autophagy proteins resulted from a blockade of autophagy degradation or active flux through the pathway, we monitored the levels of LC3-II in proliferating and 7 dCI fibroblasts in the presence of bafilomycin A1 (Baf-A1). Baf-A1 is a vacuolar-type H^+-ATPase inhibitor that prevents autophagosome fusion with the lysosome due to an increase in lysosomal pH. […] This finding is consistent with active autophagic flux in quiescent fibroblasts\nIn addition to its role in providing amino acids and energy under starvation conditions, autophagy is involved in maintenance of cellular homeostasis and resistance to tumorigenesis through degradation of old or damaged proteins and entire organelles. It was hypothesized that autophagy in contact-inhibited cells could function to degrade old and/or damaged proteins that would otherwise accumulate in the cytoplasm due to lack of cell division as a mechanism for dilution of these proteins. Oxidation of proteins causes the formation of carbonyl groups on amino acids, and carbonylation can disrupt protein function. To monitor the extent of protein oxidation in proliferating and contact-inhibited fibroblasts, the protein carbonyl groups were derivatized using 2,4-dinitrophenylhydrazine (DNP), and monitored using immunoblotting with an antibody that recognizes the covalently added DNP. The levels of oxidized proteins in proliferating and 7 dCI fibroblasts were monitored in cells that were either competent to perform autophagy (control), or were stably expressing an shRNA against the essential autophagy components Atg5 (sh-Atg5) or Atg7 (sh-Atg7), which are known to represent autophagy-defective phenotypes in other model systems. […] In contact-inhibited fibroblasts, in contrast, the levels of oxidized proteins increased 1.5-fold±0.1 in 7 dCI sh-Atg5 fibroblasts as compared to vector control counterparts (p=0.009) (FIG. 22B). […]\nTo test this hypothesis, the levels of an autophagy-specific form of the LC3 protein, LC3 II, were monitored compared to a housekeeping protein (Klionsky et al., 2008, “Guidelines for the use and interpretation of assays for monitoring autophagy in higher eukaryotes,” Autophagy 4, 151-175, which is incorporated herein by reference as if fully set forth). […]\nWe observed an increase in the ratio of LC3 II to GAPDH in response to MG132 treatment for cells in proliferating, contact-inhibited and serum-starved states (FIG. 25B). To test whether the high levels of LC3 II in quiescent cells in response to MG132 treatment result from a blockade of autophagy degradation or from active flux through the pathway, LC3 II levels were monitored in proliferating and quiescent fibroblasts treated with MG132 in the presence or absence of bafilomycin A1 (Baf). […]"}, "[7]": {"system": "p62/SQSTM1", "assay": "p62 immunoblot (autophagic flux)", "assay_type": "cell-based, human", "details": "contact-inhibited (7 dCI) fibroblasts vs proliferating or vehicle/non-treated controls", "description": "as §1"}, "[8]": {"system": "proliferating and quiescent fibroblasts", "assay": "annexin V / PI flow cytometry after proteasome inhibition", "assay_type": "cell-based, human", "details": "24 hours", "description": "To elucidate the responses of proliferating and quiescent fibroblasts to proteasome inhibition, the effects of known proteasome inhibitors on proliferating and quiescent fibroblasts were examined.\nAt the highest dose (10 μM), approximately 50% of proliferating cells were apoptotic (FIG. 24A-lower right (Q4), upper right (Q2), and upper left (Q1) quadrants represent early apoptosis, late apoptosis, and very late apoptosis or necrosis, respectively). In comparison, quiescent fibroblasts were largely unaffected by MG132 treatment, showing far lower levels of apoptosis."}, "[9]": {"system": "four day serum starved fibroblasts", "assay": "induction of apoptosis in quiescent fibroblasts by DHEA and/or autophagy inhibitor combined with proteasome inhibitors", "assay_type": "cell-based, human", "details": "proteasome inhibitor alone; four day serum starved fibroblasts", "description": "Referring to FIG. 17, the effect of treatment using DHEA and/or an autophagy inhibitor combined with proteasome inhibitors on apoptosis in quiescent cells was analyzed.\nIn this experiment, the proteasome inhibitor, bortezomib, was used in varying concentrations with DHEA during a 48 hour treatment."}},
  "data": [
    {"smiles": "C[C@]12CCCC[C@@H]1CC[C@@H]1[C@@H]2CC[C@]2(C)C(=O)[C@H](F)C[C@@H]12", "note": "[16a-fluoro-5a-androstan-17-one]", "values": [
      {"measurement": "skin papilloma development", "setting": "[1]", "value": "effective in inhibiting skin papilloma development"}
    ]},
    {"smiles": "C[C@]12CCCCC1=CC[C@@H]1[C@@H]2CC[C@]2(C)C(=O)[C@H](F)C[C@@H]12", "note": "[16α-fluoro-5-androsten-17-one]", "values": [
      {"measurement": "skin papilloma development", "setting": "[1]", "value": "effective in inhibiting skin papilloma development"},
      {"measurement": "death due to neoplasms", "setting": "[2]", "value": "delay death due to neoplasms"}
    ]},
    {"smiles": "FC(F)(F)c1ccc2c(NCCCN3CCN(c4ccnc5cc(Cl)ccc45)CC3)ccnc2c1", "note": "[{3-[4-(7-chloro-quinolin-4-yl)-piperazin-1-yl]-propyl}-(7-rifluoromethyl-quinolin-4-yl)-amine]", "values": [
      {"measurement": "antiproliferative effects", "setting": "[3]", "value": "very effective"}
    ]},
    {"smiles": "Cc1ncc(C[n+]2csc(CCO)c2C)c(=O)[nH]1", "note": "[oxythiamine]", "values": [
      {"measurement": "tumor growth", "setting": "[4]", "value": "inhibit tumor growth"}
    ]},
    {"smiles": "C[C@H]1CC[C@@]2(C)C(=CC[C@@H]3[C@@H]2CC[C@]2(C)C(=O)CC[C@@H]32)C1", "note": "[3-β-methylandrost-5-en-17-one]", "values": [
      {"measurement": "skin papilloma development", "setting": "[1]", "value": "inhibits skin papilloma development"},
      {"measurement": "development of skin papillomas and carcinomas", "setting": "[1]; topical 7,12-dimethylbenz(a)anthracene (DMBA), mice", "value": "even more potent chemopreventive effect"}
    ]},
    {"smiles": "FC(F)(F)c1ccc2c(N3CCN(CCCNc4ccnc5cc(Cl)ccc45)CC3)ccnc2c1", "note": "[7-chloro-N-(3-(4-(7-trifluoromethyl)quinolin-4-yl)piperazin-1-yl)propyl)quinolin-4-amine]", "values": [
      {"measurement": "antiproliferative effects", "setting": "[3]", "value": "very effective"}
    ]},
    {"smiles": "CCN(CCO)CCCC(C)Nc1ccnc2cc(Cl)ccc12", "note": "(stereo not drawn) [hydroxychloroquine]", "values": [
      {"measurement": "induction of apoptosis", "setting": "[5]; serum starved fibroblasts, FIG. 2B", "value": "induction of apoptosis"}
    ]},
    {"smiles": "CO/C1=C\\C(C)=C\\[C@@H](C)[C@@H](O)[C@@H](C)C/C(C)=C/C=C/[C@H](OC)[C@@H]([C@@H](C)[C@@H](O)[C@H](C)[C@@]2(O)C[C@@H](O)[C@H](C)[C@@H](C(C)C)O2)OC1=O", "note": "[Baf, bafilomycin A1]", "values": [
      {"measurement": "LC3 II to GAPDH ratio vs MG132 alone", "setting": "[6]; Baf combined with MG132, serum-starved cells", "value": "did not change"},
      {"measurement": "LC3 II to GAPDH ratio vs MG132 alone", "setting": "[6]; Baf in conjunction with MG132, proliferating and contact-inhibited cells", "value": "further increase"},
      {"measurement": "ratio of LC3 II to GAPDH", "setting": "[6]; Baf-treated proliferating and quiescent cells", "value": "increase"},
      {"measurement": "levels of LC3-II", "setting": "[6]; contact-inhibited (7 dCI) fibroblasts vs proliferating or vehicle/non-treated controls", "value": "further increase"},
      {"measurement": "levels of p62/SQSTM1", "setting": "[7]", "value": "further increase"},
      {"measurement": "effect on MG132-induced caspase 3/7 activity", "setting": "[5]; 100 nM Baf, proliferating cells, 24 hours post treatment", "value": "slight reduction"},
      {"measurement": "effect on MG132-induced apoptosis (caspase 3/7)", "setting": "[5]; 100 nM Baf, proliferating fibroblasts, 48 hours post treatment", "value": "no significant effect"},
      {"measurement": "effect on MG132-induced apoptosis (caspase 3/7)", "setting": "[5]; 100 nM Baf, serum-starved fibroblasts", "value": "strongly enhanced"},
      {"measurement": "effect on bortezomib-induced caspase 3/7 activity", "setting": "[5]; proliferating fibroblasts, 24 hours post treatment", "value": "reduced"},
      {"measurement": "effect on bortezomib-induced caspase 3/7 activity", "setting": "[5]; proliferating fibroblasts, after 48 hours", "value": "little effect"},
      {"measurement": "induction of apoptosis in the presence of Baf vs MG132 alone", "setting": "[5]; serum-starved fibroblasts, 48 hours, 10 μM MG132", "value": "more than doubled"}
    ]},
    {"smiles": "CC[C@H](C)[C@H](NC(=O)[C@H]([C@@H](C)CC)N(C)C(C)=O)C(=O)N[C@H](C(=O)N[C@@H](CC(C)C)C(=O)[C@@]1(C)CO1)[C@@H](C)O", "note": "[epoxomicin]", "values": [
      {"measurement": "reduction of viability of proliferating cells", "setting": "[8]; 1 μM", "value": "~50", "unit": "%"},
      {"measurement": "proliferating cell viability (fraction PI negative)", "setting": "[8]; proliferating cells", "value": "statistically significant, dose-dependent decrease"},
      {"measurement": "quiescent cell viability", "setting": "[8]; quiescent cells, up to 10 μM MG132, 1 μM epoxomicin", "value": "maintained high viability"}
    ]},
    {"smiles": "CC(C)C[C@H](NC(=O)[C@H](Cc1ccccc1)NC(=O)c1cnccn1)B(O)O", "note": "[bortezomib]", "values": [
      {"measurement": "apoptotic induction", "setting": "[9]", "value": "did not result in apoptotic induction"},
      {"measurement": "induction of apoptosis (caspase 3/7)", "setting": "[5]; bortezomib, serum-starved compared to proliferating fibroblasts", "value": "relatively low"}
    ]},
    {"smiles": "COc1cc2c(cc1O)CC[C@@H]1[C@@H]2CC[C@]2(C)[C@@H](O)CC[C@@H]12", "note": "[2-ME, 2-methoxyestradiol]", "values": [
      {"measurement": "effect on MG132-induced apoptosis", "setting": "[5]; proliferating fibroblasts", "value": "little effect"},
      {"measurement": "effect on MG132-induced apoptosis", "setting": "[5]; serum-starved fibroblasts", "value": "sensitized"}
    ]}
  ]
}
